Measurements published in patent US12384753B2, “17-beta-hydroxysteroid dehydrogenase type 13 inhibitors and methods of use thereof” (Enanta Pharmaceuticals, Inc., priority 2021, dated 2025).

Molecular target: Recombinant human HSD17B13 (Homo sapiens (Human), UniProt Q7Z5P4)
Experiment: HSD17B13 rapid-fire mass spectrometry assay (RF/MS assay)
Assay type: biochemical
Settings: inhibition of HSD17B13; LTB4 10 μM, NAD+ 0.5 mM, RT 3 h; IC50 ranges A-E
Source text: HSD17B13 rapid-fire mass spectrometry assay (RF/MS assay). Recombinant human HSD17B13 was expressed and purified from sf9 cells at Charles River Labs (Saffron Walden, UK). Leukotriene B4 (Catalog #71160-24-2) and 12-oxoleukotriene B4 (Catalog #20140) were purchased from Cayman Chemicals (Ann Arbor, Michigan.). NAD+ (Catalog #N8285), BSA (Catalog #A7030), DMSO (Catalog #D2650), and Tween-20 (Catalog #11332465001) were purchased from Sigma (St. Louis, MO). Formic acid (Catalog #28905) was from ThermoFisher Scientific and 384 deep well PP microplates (Catalog #784261) were from Greiner Bio-One. In a typical IC50 assay performed in a 384w PP microplate, test compounds (0-100 μM) were incubated with HSD17B13 (80 nM), LTB4 (10 μM), and NAD^+ (0.5 mM) in 10 μL assay buffer (20 mM Tris (pH 7.5), BSA (0.005%), and Tween-20 (0.01%)) at RT for 3 h. The assays were quenched by adding 20 μL of 0.15% aqueous formic acid and the plates were frozen at −80° C. RF/MS analysis was performed at PureHoney Technologies (Billerica, MA) on a RapidFire RF300 system (Agilent Technologies, Inc.) coupled to an API 4000 triple quadrupole mass spectrometer (Sciex) equipped with Agilent RapidFire cartridge type A (C4). The mobile phase was 0.09% formic acid and 0.01% trifluoracetic acid in water (Buffer A) and 0.09% formic acid and 0.01% trifluoracetic acid in 80% aqueous acetonitrile (Buffer B). The RapidFire method conditions were the following: 250 ms aspirate, 3000 ms load/desalt, 4000 ms elute, and 500 ms re-equilibrate. RF-MS/MS was performed in negative polarity (−4500 V), the source temperature was 650° C., and gas 1 and gas 2 settings for nitrogen were set to 50. The curtain gas and collision gas were also nitrogen and were set to 20 and 12, respectively. Leukotriene B4 (335.3) and 12-oxoLeukotriene B4 (333.3) SRM transitions were optimized with Discovery Quant software and extracted ion counts for these analytes were determined.
Data Analysis. HSD17B13 enzyme activity was measured as percent conversion of extracted ion counts and normalized to high and low controls to determine percent residual activity at various concentrations of test compounds. Data were fitted to normalized activity (variable slope) versus concentration fit in GraphPad Prism 7 to determine IC50. All experiments were run in duplicates.
By using above method, the inhibition of HSD17B13 was evaluated for the compounds of Formula (I). IC50 ranges are as follows: A=IC50<0.100 μM; B=0.100 μM<IC50<0.500 μM; C=0.500 μM<IC50<1 μM; D=1 μM<IC50<100 μM; E=IC50>100 μM

Recombinant human HSD17B13, sequence (Q7Z5P4 20-300): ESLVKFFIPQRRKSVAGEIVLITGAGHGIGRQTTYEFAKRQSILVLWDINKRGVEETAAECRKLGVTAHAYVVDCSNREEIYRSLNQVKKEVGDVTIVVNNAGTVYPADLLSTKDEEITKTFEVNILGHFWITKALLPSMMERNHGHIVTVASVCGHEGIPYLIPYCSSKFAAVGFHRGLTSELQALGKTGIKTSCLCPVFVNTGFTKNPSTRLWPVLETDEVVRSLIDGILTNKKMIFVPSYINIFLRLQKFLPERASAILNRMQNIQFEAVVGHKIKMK

| Compound | IC50 [nM] |
| --- | --- |
| O=C(O)c1cc2c(cc1F)OCCN2S(=O)(=O)c1ccc(F)cc1 [Example 9, 7-fluoro-4-((4-fluorophenyl)sulfonyl)-3,4-dihydro-2H-benzo[b][1,4]oxazine-6-carboxylic acid] | 1000 to 100000 |
| COc1cc(C(=O)O)c(F)cc1NS(=O)(=O)c1cnc(-c2ccc(-c3ccc(C(F)(F)C(F)(F)F)cc3)cc2)s1 [Example 770] | < 100 |
| COc1cc(C(=O)O)c(F)cc1NS(=O)(=O)c1csc(-c2ccc(C3CCC(C)(C)CC3)cc2-c2ccc(F)cc2)n1 [Example 558] | 100 to 500 |
| COc1cc(C(=O)O)cc2c1N(S(=O)(=O)c1cnc(-c3ccc(F)cc3)s1)CCC2 [Example 132] | 1000 to 100000 |
| COc1cc(C(=O)O)c(F)cc1NS(=O)(=O)c1ccc(-c2ccc(C)cc2)s1 [Example 233] | 100 to 500 |
| COc1cc(C(=O)O)ccc1NS(=O)(=O)c1ccc(-c2ccc(C3CCC(C)(C)CC3)cc2)s1 [Example 428, 4-((5-(4-(4,4-dimethylcyclohexyl)phenyl)thiophene)-2-sulfonamido)-3-methoxybenzoic acid] | 100 to 500 |
| COc1cc(C(=O)O)c(F)cc1NS(=O)(=O)c1csc(-c2ccc([C@H]3CC[C@@H](C(C)C)CC3)c(F)c2C)n1 [Example 805] | < 100 |
| COc1cc(C(=O)O)c(F)cc1NS(=O)(=O)c1csc(-c2ccc([C@H]3CC[C@@H](C(C)(C)C)CC3)c(OC(C)C)c2F)n1 [Example 597] | < 100 |
| CCCCOc1c(C2CCC(C)(C)CC2)ccc(-c2nc(S(=O)(=O)Nc3cc(F)c(C(=O)O)cc3OC)cs2)c1F [Example 581] | 100 to 500 |
| O=C(O)c1ccc(NS(=O)(=O)c2ccc3ccc(S(=O)(=O)Nc4ccc(C(=O)O)cc4O)cc3c2)c(O)c1 [Example 171] | < 100 |
| COc1cc(C(=O)O)ccc1NS(=O)(=O)c1cc(-c2ccc(C3CCCCC3)cc2)ccc1F [Example 435] | 500 to 1000 |
| COc1cc(C(=O)O)c(F)cc1NS(=O)(=O)c1coc(-c2ccc([C@H]3CC[C@H](C(C)C)CC3)cc2C(F)(F)F)n1 [Example 674] | < 100 |
| O=C(O)c1ccc(NS(=O)(=O)c2cnc(-c3ccc(F)cc3)s2)c(F)c1 [Example 28] | 100 to 500 |
| O=S(=O)(Nc1ccc(Br)cc1C(F)F)c1cnc(-c2ccc(F)cc2)s1 [Example 111] | 1000 to 100000 |
| COc1cc(C(=O)O)ccc1NS(=O)(=O)N1CCN(C2CCCC2)CC1 [Example 315] | 1000 to 100000 |
| COc1cc(C(=O)O)c(F)cc1N(C)S(=O)(=O)c1csc(-c2ccc(C3CCC(C)(C)CC3)cc2C(F)(F)F)n1 [Example 683] | 100 to 500 |

| Compound | IC50 [nM] |
| --- | --- |
| O=C(O)c1ccc(NS(=O)(=O)c2ccc(F)cc2)cc1 [Example 3] | 1000 to 100000 |
| COc1cc(C(=O)O)ccc1NS(=O)(=O)c1cccc(-c2ccc(C3CCCCC3)cc2)c1 [Example 472] | 100 to 500 |
| COc1cc(C(=O)O)c(F)cc1NS(=O)(=O)c1coc(-c2ccc(C3=CCC(C(F)(F)F)CC3)cc2)n1 (centres unmarked) [Example 483] | < 100 |
| COc1cc(C(=O)O)c(F)cc1NS(=O)(=O)c1coc(-c2ccc(C3=CCC(C)(C)CC3)cc2C(F)(F)F)n1 [Example 675] | < 100 |
| COc1cc(C(=O)O)ccc1NS(=O)(=O)c1cnc(-c2ccc(C#CC3CCCC3)cc2)s1 [Example 455, 4-((2-(4-(cyclopentylethynyl)phenyl)thiazole)-5-sulfonamido)-3-methoxybenzoic acid] | 100 to 500 |
| COc1cc(C(=O)O)c(F)cc1NS(=O)(=O)c1csc(-c2ccc(C3CCC(C)(C)CC3)c(C)c2F)n1 [Example 571] | < 100 |
| O=C(O)[C@H]1CC[C@H](NS(=O)(=O)c2cnc(-c3ccc(F)cc3)s2)CC1 [Example 67] | 1000 to 100000 |
| CC[C@H]1CC[C@H](c2ccc(-c3nc(S(=O)(=O)Nc4cc(F)c(C(=O)O)cc4OC)co3)cc2)CC1 [Example 495] | < 100 |
| COc1cc(C(=O)O)c(F)cc1NS(=O)(=O)c1csc(-c2ccc(C3CCC(C)(C)CC3)cc2C)n1 [Example 559] | < 100 |
| COc1cc(C(=O)O)c(F)cc1NS(=O)(=O)c1csc(-c2ccc(-c3ccc4c(c3)NCCO4)cc2)n1 [Example 653] | < 100 |
| CC[C@H]1CC[C@H](c2ccc(-c3nc(S(=O)(=O)Nc4cc(F)c(C(=O)O)cc4OC)c(C)s3)cc2)CC1 [Example 667] | 100 to 500 |
| O=C(O)c1ccc(NS(=O)(=O)c2cnc(-c3ccc(F)cc3)s2)cc1 [Example 60, 4-((2-(4-fluorophenyl)thiazole)-5-sulfonamido)benzoic acid] | 500 to 1000 |
| CCC[C@H]1CC[C@H]([C@H]2CC[C@@H](c3nc(S(=O)(=O)Nc4cc(F)c(C(=O)O)cc4OC)cs3)CC2)CC1 [Example 733] | 100 to 500 |
| COc1cc(C(=O)O)ccc1NS(=O)(=O)c1csc(N2CCN(C3CCCC3)CC2)n1 [Example 265] | 1000 to 100000 |
| COC/C=C/c1ccc(-c2ncc(S(=O)(=O)Nc3ccc(C(=O)O)cc3OC)s2)cc1 [Example 449, (E)-3-methoxy-4-((2-(4-(3-methoxyprop-1-en-1-yl)phenyl)thiazole)-5-sulfonamido)benzoic acid] | 100 to 500 |

More lines, now with the values ahead:

| IC50 [nM] | Compound |
| --- | --- |
| 500 to 1000 | COc1cc(C(=O)O)ccc1NS(=O)(=O)c1csc(N2CCCC(Cc3ccccc3)C2)n1 (centres unmarked) [Example 258] |
| < 100 | COc1cc(C(=O)O)ccc1NS(=O)(=O)c1coc(-c2ccccc2)n1 [Example 375] |
| 100 to 500 | COc1cc(C(=O)O)ccc1NS(=O)(=O)c1csc(-c2ccc(C3CCC(OC)CC3)cc2)n1 (centres unmarked) [Example 503] |
| 100 to 500 | COc1cc(C(=O)O)c(F)cc1NS(=O)(=O)c1csc(-c2ccc(C3CCC(C)(C)CC3)c(C)c2)n1 [Example 528] |
| 100 to 500 | COc1cc(C(=O)O)c(F)cc1NS(=O)(=O)c1csc(-c2ccc(C3CC4CCC3C4)cc2)n1 (centres unmarked) [Example 592] |
| < 100 | COc1cc(C(=O)O)ccc1NS(=O)(=O)c1csc(C2=CCC(c3ccccc3)CC2)n1 (centres unmarked) [Example 354] |
| 1000 to 100000 | COc1cc(C(=O)NO)ccc1NS(=O)(=O)c1cnc(-c2ccc(F)cc2)s1 [Example 69, 4-((2-(4-fluorophenyl)thiazole)-5-sulfonamido)-N-hydroxy-3-methoxybenzamide] |
| < 100 | COc1cc(C(=O)O)c(F)cc1NS(=O)(=O)c1csc(-c2ccc(C3CC4C(C3)C4(C)C)cc2)n1 (centres unmarked) [Example 535] |
| 500 to 1000 | COc1cc(C(=O)O)ccc1NS(=O)(=O)c1csc(N2CCCC(Nc3ccccc3)C2)n1 (centres unmarked) [Example 261] |
| 100 to 500 | COc1cc(C(=O)O)ccc1NS(=O)(=O)c1csc(-c2cccc(F)c2)n1 [Example 95] |
| 1000 to 100000 | COc1cc(C(=O)O)ccc1NS(=O)(=O)c1csc(N2CCCC(Oc3ccccc3)C2)n1 (centres unmarked) [Example 276] |
| 100 to 500 | COc1cc(C(=O)O)ccc1NS(=O)(=O)c1csc(C#Cc2ccc(OC(F)(F)F)cc2)n1 [Example 226] |
| 1000 to 100000 | COc1cc(C(=O)O)ccc1NS(=O)(=O)Nc1nc2ccc(-c3ccc(F)cc3)cc2s1 [Example 329] |
| 500 to 1000 | COc1cc(C(=O)O)ccc1NS(=O)(=O)c1csc(-c2cccc3cnn(C)c23)n1 [Example 403, 3-methoxy-4-((2-(1-methyl-1H-indazol-7-yl)thiazole)-4-sulfonamido)benzoic acid] |
| 1000 to 100000 | COc1cc(C(=O)O)ccc1NS(=O)(=O)c1csc(N2CCC(Cc3ccccc3)CC2)n1 [Example 260] |
| 100 to 500 | COc1cc(C(=O)O)c(F)cc1NS(=O)(=O)c1csc(-c2ccc(-c3cccnc3)cc2)n1 [Example 526] |
| 500 to 1000 | COc1cccc(C#Cc2nc(S(=O)(=O)Nc3ccc(C(=O)O)cc3OC)cs2)n1 [Example 244] |
| 100 to 500 | COc1cc(C(=O)O)c(F)cc1NS(=O)(=O)c1csc(-c2ccc(C3CCC(C)(C)CC3)nc2)n1 [Example 553] |
| 100 to 500 | COc1cc(C(=O)O)c(F)cc1NS(=O)(=O)c1csc(-c2ccc(-c3cc4ccccc4[nH]3)cc2)n1 [Example 637] |
| < 100 | COc1cc(C(=O)O)ccc1NS(=O)(=O)c1csc(C#Cc2cccs2)n1 [Example 218] |
| 500 to 1000 | COc1cc(C#Cc2nc(S(=O)(=O)Nc3ccc(C(=O)O)cc3OC)cs2)ccn1 [Example 246] |
| 1000 to 100000 | COc1cc(C(=O)O)ccc1NS(=O)(=O)c1csc(NCCc2ccccc2)n1 [Example 165] |
